According to patent US8674100B2, “Inhibitors of C-FMS kinase” (Janssen Pharmaceutica, N.V., priority 2006, dated 2014):
Where “and” joins values, the source holds several entries; their conditions need not be identical. Equal values may be shown once. Where a name gives a salt, the structure may show the parent alone. Read-outs that look alike come from different tables or passages of the source.

Tests used:
[1] = tested on: mouse bone-marrow derived macrophages
[2] = biological target: CSF-1R (c-fms) (Homo sapiens (Human), UniProt P07333); assay: Fluorescence polarization competition immunoassay (1 nM c-fms; peptide Pi assay); assay type: biochemical; conditions: read-out: 1 nM c-fms; peptide Pi assay - IC-50
Procedure: Fluorescence Polarization Competition Immunoassay
The kinase reaction was initiated by adding 1 μL of 10 mM ATP in assay buffer. […] Positive and negative control wells were included on each plate, where 4% DMSO in assay buffer was substituted for the compound; in addition, positive control wells received 1.2 μL of 50 mM EDTA (ethylenediaminetetraacetic acid) before the start of the reaction.
The plates were covered, incubated for 30 min at room temperature, and the fluorescence polarization was read on an Analyst plate reader (Molecular Devices). […] Reported IC50 values are the mean of three of at least three determinations.

[3] = biological target: c-fms (Homo sapiens (Human), UniProt P07333); assay: 10 nM c-fms auto-Pi assay; assay type: biochemical; conditions: cell printed as 0.05@0.002–2; read-out: 10 nM c-fms auto-Pi assay - IC-50
[4] = read-out: mCSF driven proliferation BMDM (Mouse) - IC-50, BrDU incorporation, CSF-1 stimulated, 30 hrs culture
[5] = Mus musculus, BMDM, 30 h, read-out: mCSF driven proliferation BMDM (Mouse) - IC-50 (μM), BrDU incorporation, CSF-1 stimulated, 30 hrs culture

Sequence of CSF-1R (c-fms) (P07333 20-972): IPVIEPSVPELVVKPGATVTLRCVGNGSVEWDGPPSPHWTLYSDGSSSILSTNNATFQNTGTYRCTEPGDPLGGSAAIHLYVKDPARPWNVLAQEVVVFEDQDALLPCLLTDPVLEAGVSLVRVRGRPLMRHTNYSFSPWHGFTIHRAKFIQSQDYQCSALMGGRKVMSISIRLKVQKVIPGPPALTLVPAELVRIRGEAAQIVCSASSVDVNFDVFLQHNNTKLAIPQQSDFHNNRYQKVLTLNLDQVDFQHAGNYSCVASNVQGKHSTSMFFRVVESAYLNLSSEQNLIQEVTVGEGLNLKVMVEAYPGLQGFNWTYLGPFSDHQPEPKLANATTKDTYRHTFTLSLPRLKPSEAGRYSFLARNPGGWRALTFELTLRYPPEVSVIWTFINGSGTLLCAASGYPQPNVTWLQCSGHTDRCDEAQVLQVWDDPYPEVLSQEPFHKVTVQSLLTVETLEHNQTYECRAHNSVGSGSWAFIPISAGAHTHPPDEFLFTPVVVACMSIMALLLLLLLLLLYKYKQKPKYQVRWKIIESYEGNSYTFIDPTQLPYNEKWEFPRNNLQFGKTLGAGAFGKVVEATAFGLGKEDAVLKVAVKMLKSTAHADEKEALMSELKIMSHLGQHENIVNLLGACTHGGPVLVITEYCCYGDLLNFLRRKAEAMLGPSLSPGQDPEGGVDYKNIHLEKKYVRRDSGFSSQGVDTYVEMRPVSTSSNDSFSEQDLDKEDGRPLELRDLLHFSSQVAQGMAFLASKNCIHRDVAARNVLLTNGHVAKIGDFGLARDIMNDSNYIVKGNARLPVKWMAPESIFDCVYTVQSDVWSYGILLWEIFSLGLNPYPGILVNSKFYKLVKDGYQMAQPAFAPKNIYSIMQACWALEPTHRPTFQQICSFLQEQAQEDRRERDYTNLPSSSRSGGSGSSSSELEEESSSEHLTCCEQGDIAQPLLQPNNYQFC
Sequence of c-fms (P07333 20-972): as above

| SMILES | IC50 [2] | IC50 [1, 5] | also measured |
| --- | --- | --- | --- |
| COCCNC(C)(C)c1ccc(NC(=O)c2nc(C#N)c[nH]2)c(C2=CCC(C)(C)CC2)c1 [Example 20, 4-Cyano-1H-imidazole-2-carboxy-lic acid{2-(4,4-di-methyl-cyclo-hex-1-enyl)-4-[1-(2-meth-oxy-ethyl-amino)-1-methyl-ethyl]-phenyl}-amide] | – | – | IC50 [1, 4]: 0.0047 µM and 0.0048 µM |
| CN1CCN(C(C)(C)c2ccc(NC(=O)c3nc(C#N)c[nH]3)c(C3=CCC(C)(C)CC3)c2)CC1 [Example 23, 4-Cyano-1H-imidazole-2-carboxy-lic acid{2-(4,4-di-methyl-cyclohex-1-enyl)-4-[1-meth-yl-1-(4-methyl-piperazin-1-yl)-ethyl]-phe-nyl}-amide] | – | – | IC50 [1, 4]: 0.0033 µM |
| N#Cc1c[nH]c(C(=O)Nc2ccc(CCS(=O)(=O)N3CCOCC3)cc2C2=CCCCC2)n1 [Example 26, 4-Cyano-1H-imidazole-2-carboxylic acid {2-cyclohex-1-enyl-4-[2-(morpholine-4-sulfonyl)-ethyl]-phenyl}-amide] | – | – | IC50 [1, 4]: 0.0059 µM |
| Cc1nc(C(=O)Nc2ccc(CCN3CCOCC3)cc2C2=CCCCC2)[nH]c1C#N [Example 33, 5-Cyano-4-methyl-1H-imidazole-2-carboxylic acid [2-cyclohex-1-enyl-4-(2-morpholin-4-yl-ethyl)-phenyl]-amide hydrochloride] | > 60 nM | – | – |
| C[S+]([O-])c1ncc(C(=O)Nc2ccc(CCN3CCOCC3)cc2C2=CCCCC2)[nH]1 (centres unmarked) [Example 35, 2-Methanesulfinyl-3H-imidazole-4-carboxylic acid [2-cyclohex-1-enyl-4-(2-morpholin-4-yl-ethyl)-phenyl]-amide trifluoroacetic acid salt] | > 500 nM | – | – |
| CS(=O)(=O)c1ncc(C(=O)Nc2ccc(CCN3CCOCC3)cc2C2=CCCCC2)[nH]1 [Example 36, 2-Methanesulfonyl-3H-imidazole-4-carboxylic acid [2-cyclohex-1-enyl-4-(2-morpholin-4-yl-ethyl)-phenyl]-amide hydrochloride] | > 500 nM | – | – |
| O=C(Nc1ccc(CCN2CCOCC2)cc1C1=CCCCC1)c1nc(Cl)c(Cl)[nH]1 [Example 38, 4,5-Dichloro-1H-imidazole-2-carboxylic acid [2-cyclohex-1-enyl-4-(2-morpholin-4-yl-ethyl)-phenyl]-amide trifluoroacetic acid salt] | > 60 nM | – | – |
| O=C(Nc1ccc(CCN2CCOCC2)cc1C1=CCCCC1)c1nc2ccccc2[nH]1 [Example 39, 1H-Benzoimidazole-2-carboxylic acid [2-cyclohex-1-enyl-4-(2-morpholin-4-yl-ethyl)-phenyl]-amide trifluoroacetic acid salt] | > 60 nM | – | – |
| O=C(Nc1ccc(CCN2CCOCC2)cc1C1=CCCCC1)c1ncc(Cl)[nH]1 [Example 41, 5-Chloro-1H-imidazole-2-carboxylic acid [2-cyclohex-1-enyl-4-(2-morpholin-4-yl-ethyl)-phenyl]-amide hydrochloride] | – | 0.321 µM | – |
| N#Cc1cnc(C(=O)Nc2ccc(CN3CCOCC3)cc2C2=CCCCC2)[nH]1 [Example 44, 5-Cyano-1H-imidazole-2-carboxylic acid (2-cyclohex-1-enyl-4-morpholin-4-ylmethyl-phenyl)-amide hydrochloride] | – | 0.0164 µM | IC50 ([1]; read-out: mCSF driven proliferation BMDM (Mouse) - IC-50, BrDU incorporation, CSF-1 stimulated, 30 hrs culture, hydrochloride): 0.0146 µM |
| CC1(C)CC=C(c2cc(CC(=O)NCCCO)ccc2NC(=O)c2ncc(C#N)[nH]2)CC1 [Example 54, 5-Cyano-1H-imidazole-2-carboxylic acid {2-(4,4-dimethyl-cyclohex-1-enyl)-4-[(3-hydroxy-propylcarbamoyl)-methyl]-phenyl}-amide] | – | > 0.1 µM | – |
| CCN(C)CCCc1ccc(NC(=O)c2ccc(C#N)o2)c(N2CCC(C)CC2)c1 [Example 55, 5-Cyano-furan-2-carboxylic acid [4-[3-(ethyl-methyl-amino)-propyl]-2-(4-methyl-piperidin-1-yl)-phenyl]-amide] | – | – | IC50 [3]: 50 nM |
| CC1(C)CC=C(c2cc(C(C)(C)N3CCN(CC(=O)O)CC3)ccc2NC(=O)c2nc(C#N)c[nH]2)CC1 [Example 64, (4-{1-[4-[(4-Cyano-1H-imidazole-2-carbonyl)-amino]-3-(4,4-dimethyl-cyclohex-1-enyl)-phenyl]-1-methyl-ethyl}-piperazin-1-yl)-acetic acid, sodium salt] | – | 0.2 µM | – |
| CC1(C)CC=C(c2cc(C(C)(C)NCCO)ccc2NC(=O)c2nc(C#N)c[nH]2)CC1 [Example 65, 4-Cyano-1H-imidazole-2-carboxylic acid {2-(4,4-dimethyl-cyclohex-1-enyl)-4-[1-(2-hydroxy-ethylamino)-1-methyl-ethyl]-phenyl}-amide hydrochloride] | – | 0.0081 µM | – |
| CC1(C)CC=C(c2cc(C(C)(C)CN3C[C@@H]4OC(C)(C)O[C@@H]4C3)ccc2NC(=O)c2nc(C#N)c[nH]2)CC1 [Example 140, 4-Cyano-1H-imidazole-2-carboxylic acid {2-(4,4-dimethyl-cyclohex-1-enyl)-4-[2-(2,2-dimethyl-tetrahydro-[1,3]dioxolo[4,5-c]pyrrol-5-yl)-1,1-dimethyl-ethyl]-phenyl}-amide] | > 100 nM | 0.031 µM | – |
